Patent US12415184B2, “Device for analysis of cellular motility” (MOTILITYCOUNT APS, priority 2013, dated 2025)

System: sperm cells
Assay: effects of detection agents on the motility of sperm cells (microscopic analysis)
Assay type: cell-based
Details: 60 min, ambient temperature; for Cells: cells in total / Cells: motile cells: 50:50 with sperm sample 60/72
Description: The possible effects of two detection agents, MTT and crystal violet, on the motility of sperm cells were tested. Stock solutions of MTT and crystal violet of 5 mg/ml and 1 mg/ml, respectively, were prepared, and these were diluted two-fold serially. The detection agent solutions were mixed with sperm samples comprising 60 million motile cells per milliliter and 72 million cells per milliliter in total (denoted 60/72) in a 50:50 ratio and the mixtures were incubated for 60 min at ambient temperature before analysing the cells microscopically.

Cells: cells in total (Crystal violet 0.125 mg/ml): 56 million per milliliter
Cells: motile cells (Crystal violet 0.125 mg/ml): 37 million per milliliter
Cells: cells in total (Crystal violet 0.25 mg/ml): 56 million per milliliter
Cells: motile cells (Crystal violet 0.25 mg/ml): 32 million per milliliter
Cells: cells in total (Crystal violet 0.5 mg/ml): 43 million per milliliter
Cells: motile cells (Crystal violet 0.5 mg/ml): 27 million per milliliter
Cells: cells in total (Crystal violet 1 mg/ml): 63 million per milliliter
Cells: motile cells (Crystal violet 1 mg/ml): 40 million per milliliter
ratio of motile versus non-motile cells (% motile) (concentrations of Table 3): not affected
SMILES: CN(C)c1ccc(C(=C2C=CC(=[N+](C)C)C=C2)c2ccc(N(C)C)cc2)cc1 [Crystal violet, crystal violet]
